Literature values, collected in article PMC9516332 (Frontiers in Oncology, 2022).
Like-named read-outs stand apart in the source and are kept apart here.

Experiments:
Details in all cases: cited from earlier work
[1] = target: panel of 255 wild-type kinases (Homo sapiens, UniProt Q9Y5S2)
[2] = target: T1, panel of 255 wild-type kinases (Homo sapiens, UniProt Q96PN8)
T1 sequence (Q96PN8 1-268): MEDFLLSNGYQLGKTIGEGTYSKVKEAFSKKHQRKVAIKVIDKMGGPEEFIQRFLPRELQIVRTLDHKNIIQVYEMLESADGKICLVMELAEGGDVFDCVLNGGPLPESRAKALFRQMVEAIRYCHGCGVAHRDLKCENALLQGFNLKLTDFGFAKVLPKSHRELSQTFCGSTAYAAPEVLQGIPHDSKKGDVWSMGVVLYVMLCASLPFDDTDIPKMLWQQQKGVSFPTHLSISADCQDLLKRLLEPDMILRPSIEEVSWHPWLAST

[3] = target: panel of 255 wild-type kinases (Homo sapiens, UniProt P78362)
[4] = target: panel of 255 wild-type kinases (Homo sapiens, UniProt P16234)
[5] = target: T2, panel of 255 wild-type kinases (Homo sapiens, UniProt Q9NRM7)
T2 sequence (Q9NRM7 1-1088): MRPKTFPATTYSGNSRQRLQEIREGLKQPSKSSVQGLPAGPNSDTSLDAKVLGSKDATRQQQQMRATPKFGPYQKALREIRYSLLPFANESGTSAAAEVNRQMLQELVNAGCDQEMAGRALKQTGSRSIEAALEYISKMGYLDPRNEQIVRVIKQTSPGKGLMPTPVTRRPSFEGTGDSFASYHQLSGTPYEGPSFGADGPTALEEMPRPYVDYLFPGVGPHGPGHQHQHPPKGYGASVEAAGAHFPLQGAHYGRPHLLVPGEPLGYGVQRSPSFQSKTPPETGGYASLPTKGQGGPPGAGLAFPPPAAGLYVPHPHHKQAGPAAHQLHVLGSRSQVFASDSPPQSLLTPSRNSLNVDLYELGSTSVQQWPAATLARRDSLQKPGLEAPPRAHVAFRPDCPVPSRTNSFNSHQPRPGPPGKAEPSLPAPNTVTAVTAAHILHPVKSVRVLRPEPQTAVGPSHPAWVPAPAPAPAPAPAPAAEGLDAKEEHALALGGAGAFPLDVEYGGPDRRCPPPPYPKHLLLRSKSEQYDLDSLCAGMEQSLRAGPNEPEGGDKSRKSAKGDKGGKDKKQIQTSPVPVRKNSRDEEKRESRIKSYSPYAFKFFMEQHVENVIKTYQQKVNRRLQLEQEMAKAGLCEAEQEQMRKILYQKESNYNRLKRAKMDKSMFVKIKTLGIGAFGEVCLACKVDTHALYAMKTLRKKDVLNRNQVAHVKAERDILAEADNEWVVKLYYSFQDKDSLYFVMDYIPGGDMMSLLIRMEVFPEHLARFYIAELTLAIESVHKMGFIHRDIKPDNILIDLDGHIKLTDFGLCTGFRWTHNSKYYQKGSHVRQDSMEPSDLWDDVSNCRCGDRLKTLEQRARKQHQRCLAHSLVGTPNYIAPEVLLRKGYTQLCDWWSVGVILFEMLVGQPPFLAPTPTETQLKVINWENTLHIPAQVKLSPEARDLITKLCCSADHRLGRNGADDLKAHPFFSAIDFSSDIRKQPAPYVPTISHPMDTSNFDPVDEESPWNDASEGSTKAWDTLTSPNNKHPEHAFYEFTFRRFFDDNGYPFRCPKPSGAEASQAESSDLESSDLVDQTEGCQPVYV

[6] = target: panel of 255 wild-type kinases (Homo sapiens, UniProt Q14680)
[7] = MRCKβ, 1 µmol/L single concentration, ref DOI: 10.1158/1535-7163.MCT-18-0877
[8] = kinase TSSK3, 1 µmol/L single concentration, ref DOI: 10.1158/1535-7163.MCT-18-0877
[9] = kinase SRPK2, 1 µmol/L single concentration, ref DOI: 10.1158/1535-7163.MCT-18-0877
[10] = kinase PDGFRα, 1 µmol/L single concentration, ref DOI: 10.1158/1535-7163.MCT-18-0877
[11] = kinase LATS2, 1 µmol/L single concentration, ref DOI: 10.1158/1535-7163.MCT-18-0877
[12] = MELK, 1 µmol/L single concentration, ref DOI: 10.1158/1535-7163.MCT-18-0877
[13] = MRCKβ, 1 µmol/L single concentration, ref DOI: 10.1371/journal.pone.0092146
[14] = kinase TSSK3, 1 µmol/L single concentration, ref DOI: 10.1371/journal.pone.0092146
[15] = kinase SRPK2, 1 µmol/L single concentration, ref DOI: 10.1371/journal.pone.0092146
[16] = kinase PDGFRα, 1 µmol/L single concentration, ref DOI: 10.1371/journal.pone.0092146
[17] = kinase LATS2, 1 µmol/L single concentration, ref DOI: 10.1371/journal.pone.0092146
[18] = MELK, 1 µmol/L single concentration, ref DOI: 10.1371/journal.pone.0092146

Row | Structure (SMILES) | %-inhibition, MRCKβ [1, 7] [%] | %-inhibition at 1 µmol/L, TSSK3 [2, 8] [%] | %-inhibition at 1 µmol/L, SRPK2 [3, 9] [%] | %-inhibition at 1 µmol/L, PDGFRα [4, 10] [%] | %-inhibition at 1 µmol/L, LATS2 [5, 11] [%] | %-inhibition, MELK [6, 12] [%] | %-inhibition, MRCKβ [1, 13] [%] | %-inhibition at 1 µmol/L, TSSK3 [2, 14] [%] | %-inhibition at 1 µmol/L, SRPK2 [3, 15] [%] | %-inhibition at 1 µmol/L, PDGFRα [4, 16] [%] | %-inhibition at 1 µmol/L, LATS2 [5, 17] [%] | %-inhibition, MELK [6, 18] [%] | further results
1 | CC#CC(=O)N1CCC[C@H]1c1nc(-c2ccc(C(=O)Nc3ccccn3)cc2)c2c(N)nccn12 [acalabrutinib] | -16 | -8 | 0.686 | 1.38 | -7.45 | -0.54 | – | – | – | – | – | – | –
2 | CCc1cc2c(cc1N1CCC(N3CCOCC3)CC1)C(C)(C)c1[nH]c3cc(C#N)ccc3c1C2=O [alectinib] | -5 | -3.58 | 93 | 43 | 1.69 | 29 | – | – | – | – | – | – | –
3 | COc1cc(N2CCC(N3CCN(C)CC3)CC2)ccc1Nc1ncc(Cl)c(Nc2ccccc2P(C)(C)=O)n1 [brigatinib] | – | – | – | – | – | – | – | – | – | – | – | – | %-inhibition, MRCKβ [1]: 38%; %-inhibition at 1 µmol/L, TSSK3 [2]: 3%; %-inhibition at 1 µmol/L, SRPK2 [3]: 10%; %-inhibition at 1 µmol/L, PDGFRα [4]: 96%; %-inhibition at 1 µmol/L, LATS2 [5]: 49%; %-inhibition, MELK [6]: 49%
4 | Cc1cc(Nc2ncc(Cl)c(Nc3ccccc3S(=O)(=O)C(C)C)n2)c(OC(C)C)cc1C1CCNCC1 [ceritinib] | -0.678 | 8 | 80 | 61 | 2.29 | 4.5 | – | – | – | – | – | – | –
5 | O=C(c1ccc(F)c(F)c1Nc1ccc(I)cc1F)N1CC(O)([C@@H]2CCCCN2)C1 [cobimetinib] | 0.0776 | -5 | 3 | 11 | 1.46 | 2.53 | – | – | – | – | – | – | –
6 | C[C@@H](Oc1cc(-c2cnn(C3CCNCC3)c2)cnc1N)c1c(Cl)ccc(F)c1Cl [crizotinib] | – | – | – | – | – | – | -2 | -0.601 | -2.33 | 49 | -6 | 5.47 | –
7 | CC(C)(C)c1nc(-c2cccc(NS(=O)(=O)c3c(F)cccc3F)c2F)c(-c2ccnc(N)n2)s1 [dabrafenib] | – | – | – | – | – | – | -2.85 | -8 | 11 | 63 | 0.57 | 82 | –
8 | C=CC(=O)N1CCC[C@@H](n2nc(-c3ccc(Oc4ccccc4)cc3)c3c(N)ncnc32)C1 [ibrutinib] | -7.55 | -4 | 3 | 94 | 5.45 | 8 | – | – | – | – | – | – | –
9 | CO[C@@H]1[C@H](N(C)C(=O)c2ccccc2)C[C@H]2O[C@]1(C)n1c3ccccc3c3c4c(c5c6ccccc6n2c5c31)C(=O)NC4 [midostaurin] | 18 | -2.3 | 25 | 99 | 86 | 95 | – | – | – | – | – | – | –
10 | C=CC(=O)Nc1cc(Nc2nccc(-c3cn(C)c4ccccc34)n2)c(OC)cc1N(C)CCN(C)C [osimertinib] | 12 | -0.941 | 3.77 | 69 | 5 | 2.22 | – | – | – | – | – | – | –
11 | CC(=O)Nc1cccc(-n2c(=O)n(C3CC3)c(=O)c3c(Nc4ccc(I)cc4F)n(C)c(=O)c(C)c32)c1 [trametinib] | – | – | – | – | – | – | -2.56 | -8 | -0.868 | 4.53 | 1.87 | -0.588 | –
12 | CCCS(=O)(=O)Nc1ccc(F)c(C(=O)c2c[nH]c3ncc(-c4ccc(Cl)cc4)cc23)c1F [vemurafenib] | – | – | – | – | – | – | -5 | -3.19 | -2.2 | 87 | -2.28 | 4 | –
